From patent publication US20240132473A1, “SULFOXIMIDE SUBSTITUTED INDAZOLE IRAK4 KINASE INHIBITOR, PREPARATION METHOD THEREOF AND USE THEREOF” (Shanghai Xunhe Pharmaceutical Technology Co. Ltd., priority 2021, published 2024)

Assays:
IRAK4 kinase = IRAK4 kinase (Homo sapiens (Human), UniProt Q9NWZ3); assay: IRAK4 kinase inhibitory activity assay (mobility shift assay, Km ATP); assay type: biochemical; settings: MSA, ATP 37 μM (Km ATP)
Experimental: The inhibitory activity (IC50) of the compound on IRAK4 kinase under Km ATP was detected by mobility shift assay (MSA). Ten drug concentration gradients were set (initial concentration 1 μM, 3-fold dilution, 2 duplicate wells per concentration). […] After incubation at 28° C. for a period of time, 10 μL of termination buffer was added to terminate the reaction. The conversion rate data was read with Caliper, and then the conversion rate was converted into inhibition rate data. According to the inhibition rate data of each concentration, the IC50 of half inhibitory concentration was calculated by Logit method (Table 3).

hERG potassium channel = hERG potassium channel (Homo sapiens (Human), UniProt Q12809); assay: cell-based; settings: for Inhibition rate (%) of hERG current: human
Chain of hERG potassium channel (Q12809 whole entry): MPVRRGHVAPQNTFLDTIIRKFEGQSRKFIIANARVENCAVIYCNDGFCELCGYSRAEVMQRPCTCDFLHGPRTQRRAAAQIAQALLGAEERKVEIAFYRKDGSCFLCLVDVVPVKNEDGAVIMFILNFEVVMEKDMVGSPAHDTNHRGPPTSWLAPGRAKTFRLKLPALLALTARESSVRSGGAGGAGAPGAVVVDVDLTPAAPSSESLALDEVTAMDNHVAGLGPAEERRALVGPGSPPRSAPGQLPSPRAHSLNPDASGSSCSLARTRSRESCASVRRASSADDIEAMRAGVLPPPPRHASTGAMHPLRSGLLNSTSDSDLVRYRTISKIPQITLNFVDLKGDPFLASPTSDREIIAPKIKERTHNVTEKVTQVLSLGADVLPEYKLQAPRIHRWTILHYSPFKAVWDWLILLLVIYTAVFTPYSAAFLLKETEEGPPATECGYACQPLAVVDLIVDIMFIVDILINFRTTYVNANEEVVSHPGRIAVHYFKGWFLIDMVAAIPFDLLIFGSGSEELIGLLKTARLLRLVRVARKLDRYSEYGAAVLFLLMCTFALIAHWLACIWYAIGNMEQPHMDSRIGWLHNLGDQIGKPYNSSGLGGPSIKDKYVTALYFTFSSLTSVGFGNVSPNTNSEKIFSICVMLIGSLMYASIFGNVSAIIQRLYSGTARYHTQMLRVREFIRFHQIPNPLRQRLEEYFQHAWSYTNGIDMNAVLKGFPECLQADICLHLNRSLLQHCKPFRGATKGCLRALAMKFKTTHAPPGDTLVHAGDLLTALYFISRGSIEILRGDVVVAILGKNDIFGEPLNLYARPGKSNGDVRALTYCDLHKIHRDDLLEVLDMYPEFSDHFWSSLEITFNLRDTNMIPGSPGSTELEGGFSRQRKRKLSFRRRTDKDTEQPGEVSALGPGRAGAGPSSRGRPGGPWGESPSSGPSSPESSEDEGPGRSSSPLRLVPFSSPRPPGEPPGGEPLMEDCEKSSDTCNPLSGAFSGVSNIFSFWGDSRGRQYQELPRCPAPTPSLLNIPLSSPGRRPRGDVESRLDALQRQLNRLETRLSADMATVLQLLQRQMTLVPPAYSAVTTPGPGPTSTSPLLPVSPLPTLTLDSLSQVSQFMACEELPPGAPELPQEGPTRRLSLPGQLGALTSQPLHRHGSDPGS
Text: The rapid activation of delayed rectifier outward potassium current (IKr) in humans is mainly mediated by hERG ion channel and participates in human myocardial cell repolarization. Drug blockade of this current will lead to the appearance of QT interval prolongation syndrome in clinical practice, which can easily induce acute arrhythmia and even sudden death.

in vivo [1] = settings: rat, po; for half-life: SD, in vivo; for AUC(0-t) / Cmax / Tmax: plasma, 25 mg/kg
Experimental: SD rats were used as the test animals.
Standard curve and preparation and processing of quality control samples:
Stock solution was diluted with 50% acetonitrile-water to obtain standard working solutions of 0.04, 0.10, 0.20, 0.40, 1.00, 2.00, 4.00 μg/mL, and quality control working solutions of 0.10, 1.00, 3.00 μg/mL. […] 200 μL of acetonitrile (containing 5 ng/mL of the internal standard loratadine) was added. After the vortex oscillation for 3 minutes, the solutions were centrifuged at 15000 rpm at 4° C. for 15 minutes. 100 μL of the supernatant was taken for LC-MS/MS analysis. WinNonlin ® 8.0 was used to calculate the experimental results.

[2] = system: TNF-α secretion in THP-1 cells; assay: Inhibition of LPS-stimulated TNF-α secretion in THP-1 cells (ELISA); assay type: cell-based; settings: Homo sapiens, LPS 1 μg/mL, 4.5 hours
Experimental: TNF-α is a key cytokine involved in the inflammatory process of the listed autoimmune disease, such as rheumatoid arthritis, psoriatic arthritis, ankylosing spondylitis, psoriasis, Crohn's disease, ulcerative colitis, etc. In this test, TNF-α secretion was triggered by incubation with bacterial lipopolysaccharides (LPS). […] The 96-well plate was rotated at 2000 rpm for 5 minutes, and then 50 μL of supernatant was taken. The content of TNF-α in the supernatant was determined by human ELISA kit, and IC50 value of the compound was calculated by XL-Fit (table 4).

in vivo [3] = settings: ICR, mouse, po
Experimental: On the day of administration, observations were made approximately 0.5, 1, 2, 4, and 6 hours after the first administration. During day 2 to day 6 of the observation period, observations were made twice a day, once in the morning and once in the afternoon.
Observations included but not limited to: general conditions, behavioral activities, gait and posture, eyes, mouth, nose, gastrointestinal tract, skin hair and urogenital tract.
Weight data were expressed as mean ±standard deviation. Levene's test and one-way analysis of variance were used for comparison between groups. If there was a difference, Dunnet t test was then used.
The maximum tolerated dose refers to the dose administered when the animal was dying.

Chain of IRAK4 kinase (Q9NWZ3 whole entry): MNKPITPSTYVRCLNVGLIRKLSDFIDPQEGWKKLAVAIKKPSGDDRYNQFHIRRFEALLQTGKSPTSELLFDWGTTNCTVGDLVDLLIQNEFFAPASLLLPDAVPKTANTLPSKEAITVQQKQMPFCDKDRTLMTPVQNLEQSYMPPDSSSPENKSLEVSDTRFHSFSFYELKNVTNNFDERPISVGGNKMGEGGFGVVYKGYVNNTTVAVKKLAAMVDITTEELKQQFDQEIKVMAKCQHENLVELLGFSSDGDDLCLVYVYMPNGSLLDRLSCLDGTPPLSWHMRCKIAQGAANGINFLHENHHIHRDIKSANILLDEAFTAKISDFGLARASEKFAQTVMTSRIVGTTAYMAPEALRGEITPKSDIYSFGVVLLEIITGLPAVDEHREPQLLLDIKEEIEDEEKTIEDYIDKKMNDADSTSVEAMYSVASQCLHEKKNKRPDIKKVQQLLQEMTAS

Row | Structure (SMILES) | IC50 (IRAK4 kinase) [nM] | Inhibition rate (%) of hERG current (hERG potassium channel; 5 μM) [%] | Inhibition rate (%) of hERG current (hERG potassium channel; 50 μM) [%] | Inhibition rate (%) of hERG current (hERG potassium channel; 500 μM) [%] | half-life (in vivo [1]) [h] | AUC(0-t) (in vivo [1]) [ng·h/mL] | Cmax (in vivo [1]) [ng/mL] | Tmax (in vivo [1]) [h] | IC50 [2] [nM] | MTD at 6 days (in vivo [3]) [mg/kg] | IC50 (hERG potassium channel) [nM]
1 | CC(C)(O)c1cc2nn(CCS(=N)(=O)c3ccnc4ccccc34)cc2cc1NC(=O)c1cccc(C(F)(F)F)n1 (centres unmarked) [Compound I-10] | 1.1 | 0.1 | 0.9 | 20.3 | 4.7 | 9000 | 1510 | 6.3 | 1 | > 2000 | 
2 | N=S(=O)(CCn1cc2cc(NC(=O)c3cccc(C(F)(F)F)n3)c(N3CCC(O)C3)cc2n1)c1ccccc1 (centres unmarked) [Compound I-4] | 0.3 |  |  |  | 4.7 | 8530 | 1500 | 6 | 1.3 |  | 
3 | Cc1cc(-c2nc(C(=O)Nc3cc4cn(CCS(=N)(=O)c5ccccn5)nc4cc3N3CCC(O)C3)co2)ccn1 (centres unmarked) [Compound I-20] | 0.6 |  |  |  | 4.5 | 7500 | 1400 | 4.9 | 1.1 |  | 
4 | CC(C)(O)c1cc2nn(CCS(=N)(=O)c3ccccc3)cc2cc1NC(=O)c1cccc(C(F)(F)F)n1 (centres unmarked) [Compound I-2] | 0.5 | -0.5 | 0.7 | 12.3 | 5.5 | 8100 | 1580 | 6.5 | 0.3 | > 2000 | 
5 | N=S(=O)(CCn1cc2cc(NC(=O)c3cccc(C(F)(F)F)n3)c(N3CCOCC3)cc2n1)c1ccncc1 (centres unmarked) [Compound I-7] | 0.5 |  |  |  | 5 | 8630 | 1500 | 5 | 1.2 | > 2000 | 
6 | COc1cc2nn(CCS(=N)(=O)c3ccncc3)cc2cc1NC(=O)c1cccc(C(F)(F)F)n1 (centres unmarked) [Compound I-5] | 0.4 | 0.0 | -1.0 | 13.4 | 5.1 | 8280 | 1400 | 6.2 | 0.7 | > 2000 | 
7 | N=S(=O)(CCn1cc2cc(NC(=O)c3cnn4cccnc34)c(N3CCC(O)C3)cc2n1)c1ccccn1 (centres unmarked) [Compound I-24] | 0.8 |  |  |  | 5.5 | 8900 | 1420 | 6.2 | 0.8 | > 2000 | 
8 | CC(C)(O)c1cc2nn(CCS(C)(=N)=O)cc2cc1NC(=O)c1cccc(C(F)(F)F)n1 (centres unmarked) [MY-004-102, reference compound] |  |  |  |  | 1.4 | 700 | 235 | 1.3 | 169 | 750 | ~50000
9 | COc1cc2nn(CCS(=N)(=O)c3ncco3)cc2cc1NC(=O)c1cccc(C(F)(F)F)n1 (centres unmarked) [Compound I-36] | 0.5 |  |  |  | 5.4 | 8490 | 1490 | 5.6 | 1.5 |  | 
10 | Cc1cc(-c2nc(C(=O)Nc3cc4cn(CCS(=N)(=O)c5ccncc5)nc4cc3C(C)(C)O)co2)ccn1 (centres unmarked) [Compound I-16] | 0.5 |  |  |  | 6.3 | 9230 | 1360 | 6 | 0.9 | > 2000 | 
11 | CC(C)(O)c1cc2nn(CCS(=N)(=O)c3ncnc4ccccc34)cc2cc1NC(=O)c1cccc(C(F)(F)F)n1 (centres unmarked) [Compound I-34] | 0.5 | -1.6 | 1.0 | 11.5 | 5.3 | 8000 | 1630 | 5.5 | 0.5 | > 2000 | 
12 | COc1cc2nn(CCS(=N)(=O)c3ccnc4ccccc34)cc2cc1NC(=O)c1cccc(C(F)(F)F)n1 (centres unmarked) [Compound I-9] | 0.2 |  |  |  | 4.8 | 8520 | 1420 | 5.5 | 1 |  | 
13 | COc1cc2nn(CCS(=N)(=O)c3ccncc3)cc2cc1NC(=O)c1coc(-c2ccnc(C)c2)n1 (centres unmarked) [Compound I-15] | 0.7 |  |  |  | 6 | 8230 | 1380 | 5.9 | 0.9 |  | 
14 | COc1cc2nn(CCS(=N)(=O)c3ccncc3)cc2cc1NC(=O)c1cnn2cccnc12 (centres unmarked) [Compound I-21] | 0.5 | 2.3 | 2.1 | 29.7 | 5.2 | 9400 | 1520 | 5.8 | 0.9 | > 2000 | 
15 | COc1cc2nn(CCS(=N)(=O)c3ncccn3)cc2cc1NC(=O)c1cccc(C(F)(F)F)n1 (centres unmarked) [Compound I-31] | 0.6 | 1.7 | -0.2 | 6.7 | 4.5 | 7980 | 1300 | 4.8 | 1.3 | > 2000 | 
16 | Cc1cc(-c2nc(C(=O)Nc3cc4cn(CCS(=N)(=O)c5ccnc6ccccc56)nc4cc3C(C)(C)O)co2)ccn1 (centres unmarked) [Compound I-29] | 0.6 | -3.9 | 1.2 | 13.9 | 5.8 | 8130 | 1370 | 5.9 | 0.9 | > 2000 | 
17 | Cc1cc(-c2nc(C(=O)Nc3cc4cn(CCS(=N)(=O)c5ccncc5)nc4cc3N3CCOCC3)co2)ccn1 (centres unmarked) [Compound I-17] | 0.5 |  |  |  | 5.4 | 8200 | 1430 | 5.8 | 1.2 |  | 
